In patent publication US8466162B2, “5-alkynyl-pyridines” (Boehringer Ingelheim International GmbH, priority 2011, dated 2013):

Assays:
[1] = target: T1, PI3Kalpha (Homo sapiens, UniProt P42336); test: Inhibition of PI3Kalpha-induced PIP-2 phosphorylation (filter-binding assay, 33P-ATP); assay type: biochemical; conditions: PI3 Kinase alpha (p85alpha/His-p110alpha), 1 μM ATP; read-out: IC50 PI3Kα
T1 construct: His (N); made in house; host or cells: SF9 insect cells (baculovirus co-infection)

[2] = tested on: BT474 cells; test: alamarBlue BT474 cell assay (antiproliferative/cytotoxicity); assay type: cell-based; conditions: BT-474 human breast cancer cell line, 5-6 days incubation
In short: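 After overnight plating of 3000 cells per well, compounds are applied as ten threefold dilutions (highest final 10 μM) in duplicate for 5-6 days. Viability is then gauged by an 8 h alamarBlue incubation and fluorescence readout, with EC50 calculated from medium-blank-corrected signals.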

[3] = tested on: H460 cells; test: alamarBlue H460 cell assay (antiproliferative/cytotoxicity); assay type: cell-based; conditions: NCI-H460; H460 human lung carcinoma cells
In short: (§1)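 Cells treated 5–6 days at 37 °C with compound, 10 μM top final concentration, 1:3 steps over 10 dilutions, in duplicate. alamarBlue then added for 8 h; fluorescence read at ex 530–560/em 590 nm, medium blank subtracted, EC50 fitted.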

[4] = tested on: MB453 cells; test: alamarBlue MB453 cell assay (antiproliferative/cytotoxicity); assay type: cell-based; conditions: Homo sapiens; MDA MB 453 breast cancer cell line
From the text: (§2) The H460, MB453, U87, MCF7 and BT474 alamarBlue cell assays provide EC50 values indicative of the antiproliferative or cytotoxic effects of the compounds to respectively the H460 (human non small cell line cancer), MB-453 (breast cancer cell line), U87 (glioblastoma cell line), MCF7 (breast cancer cell line) and BT474 (breast cancer cell line). As known in the field, antiproliferative or cytotoxic effect against this cell lines would be expected to be indicative of activity in treating lung, breast and brain cancers. See R. Marone R et al. Biochim. Biophys. Acta. 2008 January; 1784(1):159-85. S. Yaguchi et al., J. Natl. Cancer Inst. 2006 Apr. 19; 98(8):545-56.
(§3) Method Type: Antiproliferative/Cytotoxicity
(§4) alamarBlue® is designed to provide a rapid and sensitive measure of cell proliferation and cytotoxicity in various human and animal cell lines. The assay is based on the reduction of alamarBlue in the reducing environment of living (metabolically active) cells. In the presence of added cytotoxic or antiproliferative compounds, the innate metabolic activity ceases.
(§5) AlamarBlue is soluble and stable in culture medium. Measurements are made fluorometrically by exciting at 530-560 nm and measuring emission at 590 nm. In reporting percent alamarBlue reduction by monitoring fluorescence, data are expressed as fluorescence emission intensity units as a function of time of incubation.
(§6) 3. Equipment • 96-well plates, flat bottom (Falcon, Cat. No.: 353072) • 96-well plates, U-shaped (Costar, Cat. No.: 3799) • CO2-Incubator • Microplate Reader, Spectramax Plus, Molecular Devices 4. Typical Procedure • Day 0: Seed 3000 BT-474 cells (IMDM/5% FCS, 1% NEAA, 1% Sodiumpyruvat) in 150 μl medium into a 96-well plate, flat bottom (include mediumblank). Incubate plates at 37° C. in a CO2 incubator overnight. • Day 1: Dilute compounds to a concentration 40 μM ->1:3 in medium, 10 dilution steps, in 96-well plates. • Add 50 μl per well of each dilution (total volume per well 200 μl; final conc. of cpds: 10 μM ->1:3). If required, test further dilutions. • All concentrations are tested in duplicates. • Controls: Cells w/o cpd. (+50 μl medium/DMSO). • Cells are incubated with compounds for 5-6 days. • Day 6 or 7: Add 25 μl of alamarBlue solution to each well and incubate for 8 hours at 37° C. Measure fluorescence by exciting at 530-560 nm and measuring emission at 590 nm 5. Evaluation • Subtract average value for medium blank from sample readings • Calculate EC50 using GraphPad Prism (Fifty)

[5] = tested on: U87 cells; test: alamarBlue U87 cell assay (antiproliferative/cytotoxicity); assay type: cell-based; conditions: U-87MG human glioblastoma cells
From the text: as §2, §3, §4, §5, §6

[6] = tested on: MCF7 cells; test: alamarBlue MCF7 cell assay (antiproliferative/cytotoxicity); assay type: cell-based; conditions: MCF7 human breast cancer cell line
In short: as §1

T1 sequence (P27986 whole entry): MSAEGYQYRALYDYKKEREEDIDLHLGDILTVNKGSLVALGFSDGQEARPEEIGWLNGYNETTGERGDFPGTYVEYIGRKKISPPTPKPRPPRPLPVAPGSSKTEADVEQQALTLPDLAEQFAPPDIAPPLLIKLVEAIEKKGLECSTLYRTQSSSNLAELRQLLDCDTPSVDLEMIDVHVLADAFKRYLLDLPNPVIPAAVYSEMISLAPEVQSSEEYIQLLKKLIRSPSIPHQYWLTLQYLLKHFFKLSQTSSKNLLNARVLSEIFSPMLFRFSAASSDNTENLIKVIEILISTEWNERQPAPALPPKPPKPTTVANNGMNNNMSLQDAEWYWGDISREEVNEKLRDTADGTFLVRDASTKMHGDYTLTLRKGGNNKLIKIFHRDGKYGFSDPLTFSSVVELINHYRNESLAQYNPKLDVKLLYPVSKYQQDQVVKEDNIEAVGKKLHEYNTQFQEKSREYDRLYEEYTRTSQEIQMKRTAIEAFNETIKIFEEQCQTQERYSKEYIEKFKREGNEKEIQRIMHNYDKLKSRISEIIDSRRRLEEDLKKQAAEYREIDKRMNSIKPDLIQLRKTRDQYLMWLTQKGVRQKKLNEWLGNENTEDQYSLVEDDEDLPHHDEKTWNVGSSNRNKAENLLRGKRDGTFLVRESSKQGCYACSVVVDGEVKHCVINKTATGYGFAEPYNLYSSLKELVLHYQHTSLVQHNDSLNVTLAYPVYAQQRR
T1 sequence (P42336 whole entry): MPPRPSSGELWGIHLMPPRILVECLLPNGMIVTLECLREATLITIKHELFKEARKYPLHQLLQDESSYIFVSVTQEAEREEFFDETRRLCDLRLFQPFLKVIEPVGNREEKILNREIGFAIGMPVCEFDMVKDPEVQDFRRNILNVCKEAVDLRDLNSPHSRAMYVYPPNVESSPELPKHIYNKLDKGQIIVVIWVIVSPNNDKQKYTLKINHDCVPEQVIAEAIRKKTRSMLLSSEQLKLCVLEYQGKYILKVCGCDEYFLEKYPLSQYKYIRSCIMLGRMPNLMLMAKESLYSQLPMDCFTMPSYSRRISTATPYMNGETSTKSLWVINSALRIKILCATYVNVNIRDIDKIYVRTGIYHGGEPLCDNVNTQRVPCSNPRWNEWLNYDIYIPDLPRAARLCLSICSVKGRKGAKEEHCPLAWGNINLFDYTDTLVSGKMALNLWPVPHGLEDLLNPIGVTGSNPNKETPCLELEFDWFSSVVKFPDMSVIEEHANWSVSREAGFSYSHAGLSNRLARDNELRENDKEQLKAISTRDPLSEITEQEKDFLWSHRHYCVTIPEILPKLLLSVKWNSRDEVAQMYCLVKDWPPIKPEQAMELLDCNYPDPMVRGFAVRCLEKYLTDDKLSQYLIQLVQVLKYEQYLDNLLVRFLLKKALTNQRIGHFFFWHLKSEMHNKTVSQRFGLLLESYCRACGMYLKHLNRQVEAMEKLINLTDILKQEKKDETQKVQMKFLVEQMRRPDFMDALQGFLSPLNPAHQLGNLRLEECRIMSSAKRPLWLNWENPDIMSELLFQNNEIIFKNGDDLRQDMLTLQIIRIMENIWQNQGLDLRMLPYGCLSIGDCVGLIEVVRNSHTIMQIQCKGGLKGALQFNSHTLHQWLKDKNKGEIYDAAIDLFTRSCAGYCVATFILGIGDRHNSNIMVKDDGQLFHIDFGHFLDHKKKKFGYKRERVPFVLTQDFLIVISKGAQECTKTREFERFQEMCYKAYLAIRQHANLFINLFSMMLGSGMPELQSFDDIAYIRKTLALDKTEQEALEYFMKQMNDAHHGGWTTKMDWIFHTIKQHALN

CCOc1ccc(-c2ncnc(CC)c2C#Cc2cnc(C)c(NS(C)(=O)=O)c2)cc1OCC [Example 23, N-{5-[4-(3,4-Diethoxy-phenyl)-6-ethyl-pyrimidin-5-ylethynyl]-2-methyl-pyridin-3-yl}-methanesulfonamide] showed an IC50 [1] of 0.00058 µM, an EC50 [2] of 0.119 µM and an EC50 [3] of 0.109 µM. For the same compound, the EC50 [4] was 0.123 µM, the EC50 [5] was 0.47 µM and the EC50 [6] was 0.045 µM.
CCc1ncnc(-c2ccc(C(=O)N3CCN(C)CC3)c(F)c2)c1C#Cc1cnc(C)c(NS(=O)(=O)c2ccc(F)cc2F)c1 [Example 27, N-(5-{4-Ethyl-6-[3-fluoro-4-(4-methyl-piperazine-1-carbonyl)-phenyl]-pyrimidin-5-ylethynyl}-2-methyl-pyridin-3-yl)-2,4-difluoro-benzenesulfonamide] showed an IC50 [1] of 0.0005 µM, an EC50 [2] of 0.051 µM and an EC50 [3] of 0.192 µM. It also gave an EC50 [4] of 0.033 µM, an EC50 [5] of 0.075 µM and an EC50 [6] of 0.011 µM.
In the case of CCc1nc(N)nc(-c2ccc(C(=O)N3CCN(C)CC3)c(F)c2)c1C#Cc1cnc(C)c(NS(=O)(=O)c2ccc(F)cc2F)c1 [Example 32, N-(5-{2-Amino-4-ethyl-6-[3-fluoro-4-(4-methyl-piperazine-1-carbonyl)-phenyl]-pyrimidin-5-ylethynyl}-2-methyl-pyridin-3-yl)-2,4-difluoro-benzenesulfonamide], the IC50 [1] is reported as 0.00028 µM, the EC50 [2] is reported as 0.127 µM and the EC50 [3] is reported as 0.5 µM. The EC50 [4] was 0.049 µM, the EC50 [5] was 0.259 µM and the EC50 [6] was 0.023 µM.
CCc1nc(N)nc(-c2ccnc(C)c2)c1C#Cc1cnc(C)c(NS(=O)(=O)c2ccc(F)cc2F)c1 [Example 33, N-{5-[2-Amino-4-ethyl-6-(2-methyl-pyridin-4-yl)-pyrimidin-5-ylethynyl]-2-methyl-pyridin-3-yl}-2,4-difluoro-benzenesulfonamide] gave an IC50 [1] of 0.00045 µM, an EC50 [2] of 0.033 µM and an EC50 [3] of 0.07 µM. It also gave an EC50 [4] of 0.045 µM, an EC50 [5] of 0.224 µM and an EC50 [6] of 0.009 µM.
Compound CCc1nc(N)nc(-c2ccc(C)nc2)c1C#Cc1cnc(C)c(NS(=O)(=O)c2ccc(F)cc2F)c1 [Example 36, N-{5-[2-Amino-4-ethyl-6-(6-methyl-pyridin-3-yl)-pyrimidin-5-ylethynyl]-2-methyl-pyridin-3-yl}-2,4-difluoro-benzenesulfonamide] has an IC50 [1] of 0.00056 µM, an EC50 [2] of 0.041 µM and an EC50 [3] of 0.03 µM. It also gave an EC50 [4] of 0.037 µM, an EC50 [5] of 0.127 µM and an EC50 [6] of 0.01 µM.
With Cc1ncc(C#Cc2c(C)ncnc2-c2ccc(C(=O)N3CCN(C)CC3)c(F)c2)cc1NS(C)(=O)=O [Example 37, N-(5-{4-[3-Fluoro-4-(4-methyl-piperazine-1-carbonyl)-phenyl]-6-methyl-pyrimidin-5-ylethynyl}-2-methyl-pyridin-3-yl)-methanesulfonamide] the IC50 [1] was 0.005 µM, the EC50 [2] was 1.02 µM and the EC50 [3] was 25 µM. For the same compound, the EC50 [4] was 0.685 µM, the EC50 [5] was 3.04 µM and the EC50 [6] was 4 µM.
Cc1cc(-c2ncnc(C)c2C#Cc2cnc(C)c(NS(C)(=O)=O)c2)ccn1 [Example 38, N-{2-Methyl-5-[4-methyl-6-(2-methyl-pyridin-4-yl)-pyrimidin-5-ylethynyl]-pyridin-3-yl}-methanesulfonamide] gave an IC50 [1] of 0.002 µM, an EC50 [2] of 0.344 µM and an EC50 [3] of 2.6 µM. For the same compound, the EC50 [4] was 0.317 µM, the EC50 [5] was 0.893 µM and the EC50 [6] was 0.186 µM.
Work on Cc1ncc(C#Cc2c(C)ncnc2-c2cccc(C#N)c2)cc1NS(C)(=O)=O [Example 39, N-{5-[4-(3-Cyano-phenyl)-6-methyl-pyrimidin-5-ylethynyl]-2-methyl-pyridin-3-yl}-methanesulfonamide] yielded an IC50 [1] of 0.004 µM, an EC50 [2] of 0.837 µM and an EC50 [3] of 1.55 µM. The EC50 [4] was 0.524 µM, the EC50 [5] was 0.955 µM and the EC50 [6] was 0.213 µM.
For Cc1ccc(-c2ncnc(C)c2C#Cc2cnc(C)c(NS(C)(=O)=O)c2)cn1 [Example 40, N-{2-Methyl-5-[4-methyl-6-(6-methyl-pyridin-3-yl)-pyrimidin-5-ylethynyl]-pyridin-3-yl}-methanesulfonamide], the IC50 [1] was 0.003 µM, the EC50 [2] was 0.597 µM and the EC50 [3] was 1.96 µM. The EC50 [4] was 0.411 µM, the EC50 [5] was 1.17 µM and the EC50 [6] was 0.188 µM.
Cc1ncc(C#Cc2c(C)ncnc2-c2cccc(CN(C)C)c2)cc1NS(C)(=O)=O [Example 41, N-{5-[4-(3-Dimethylaminomethyl-phenyl)-6-methyl-pyrimidin-5-ylethynyl]-2-methyl-pyridin-3-yl}-methanesulfonamide] gave an IC50 [1] of 0.009 µM, an EC50 [2] of 1.28 µM and an EC50 [3] of 2.75 µM. It also gave an EC50 [4] of 1.16 µM, an EC50 [5] of 25 µM and an EC50 [6] of 1.86 µM.
Compound Cc1ncc(C#Cc2c(C)ncnc2-c2ccccc2)cc1NS(C)(=O)=O [Example 42, N-[2-Methyl-5-(4-methyl-6-phenyl-pyrimidin-5-ylethynyl)-pyridin-3-yl]-methanesulfonamide] has an IC50 [1] of 0.004 µM, an EC50 [2] of 1.13 µM and an EC50 [3] of 2.26 µM. It also gave an EC50 [4] of 1.33 µM, an EC50 [5] of 1.81 µM and an EC50 [6] of 0.239 µM.
Compound Cc1cc(C)cc(-c2ncnc(C)c2C#Cc2cnc(C)c(NS(C)(=O)=O)c2)c1 [Example 43, N-{5-[4-(3,5-Dimethyl-phenyl)-6-methyl-pyrimidin-5-ylethynyl]-2-methyl-pyridin-3-yl}-elmethanesulfonamide] has an IC50 [1] of 0.003 µM, an EC50 [2] of 0.897 µM and an EC50 [3] of 0.337 µM. It also gave an EC50 [4] of 0.639 µM, an EC50 [5] of 0.9 µM and an EC50 [6] of 0.27 µM.
Work on COc1ncc(C#Cc2c(C)ncnc2-c2ccnc(C)c2)cc1NS(=O)(=O)c1ccc(F)cc1F [Example 44, 2,4-Difluoro-N-{2-methoxy-5-[4-methyl-6-(2-methyl-pyridin-4-yl)-pyrimidin-5-ylethynyl]-pyridin-3-yl}-benzenesulfonamide] yielded an IC50 [1] of 0.00055 µM, an EC50 [2] of 0.023 µM and an EC50 [3] of 0.015 µM. The EC50 [4] was 0.037 µM, the EC50 [5] was 0.121 µM and the EC50 [6] was 0.003 µM.
Compound COc1ccc(-c2ncnc(C)c2C#Cc2cnc(OC)c(NS(=O)(=O)c3ccc(F)cc3F)c2)cc1OC [Example 45, N-{5-[4-(3,4-Dimethoxy-phenyl)-6-methyl-pyrimidin-5-ylethynyl]-2-methoxy-pyridin-3-yl}-2,4-difluoro-benzenesulfonamide] has an IC50 [1] of 0.001 µM, an EC50 [2] of 0.01 µM and an EC50 [3] of 0.011 µM. It also gave an EC50 [4] of 0.034 µM, an EC50 [5] of 0.131 µM and an EC50 [6] of 0.005 µM.
With COc1ncc(C#Cc2c(C)ncnc2-c2ccc(C(=O)N3CCN(C)CC3)c(F)c2)cc1NS(=O)(=O)c1ccc(F)cc1F [Example 46, 2,4-Difluoro-N-(5-{4-[3-fluoro-4-(4-methyl-piperazine-1-carbonyl)-phenyl]-6-methyl-pyrimidin-5-ylethynyl}-2-methoxy-pyridin-3-yl)-benzenesulfonamide] the IC50 [1] was 0.00067 µM, the EC50 [2] was 0.009 µM and the EC50 [3] was 0.008 µM. The EC50 [4] was 0.022 µM, the EC50 [5] was 0.038 µM and the EC50 [6] was 0.005 µM.
COc1ncc(C#Cc2c(C)ncnc2-c2ccc(C)nc2)cc1NS(=O)(=O)c1ccc(F)cc1F [Example 47, 2,4-Difluoro-N-{2-methoxy-5-[4-methyl-6-(6-methyl-pyridin-3-yl)-pyrimidin-5-ylethynyl]-pyridin-3-yl}-benzenesulfonamide] was tested, and the IC50 [1] was 0.00074 µM, the EC50 [2] was 0.043 µM and the EC50 [3] was 0.007 µM. The EC50 [4] was 0.029 µM, the EC50 [5] was 0.07 µM and the EC50 [6] was 0.018 µM.
CCc1ncnc(-c2ccc(CNC(=O)OC(C)(C)C)nc2)c1C#Cc1cnc(C)c(NS(=O)(=O)c2ccc(F)cc2F)c1 [Example 48, (5-{5-[5-(2,4-Difluoro-benzenesulfonylamino)-6-methyl-pyridin-3-ylethynyl]-6-ethyl-pyrimidin-4-yl}-pyridin-2-ylmethyl)-carbamic acid tert-butyl ester] was tested, and the IC50 [1] was 0.00042 µM, the EC50 [2] was 0.026 µM and the EC50 [3] was 0.063 µM. It also gave an EC50 [4] of 0.089 µM, an EC50 [5] of 0.089 µM and an EC50 [6] of 0.003 µM.
